Earlier results as cited in patent US20050032891A1, “Method for treating alcoholic hepatitis” (University of Pittsburgh-of the Commonwealth System of …, priority 2003, published 2005).

System: rats subjected to hemorrhagic shock and resuscitation
Settings: treatment with EP

## CCOC(=O)C(C)=O [EP, ethyl pyruvate]
  hepatic lipid peroxidation: decreases hepatic lipid peroxidation
